# Values quoted from earlier work in patent US9201077B2 (Colorado State University Research Foundation, priority 2009, dated 2015).
# Tested on: antibody used in progesterone assays
# Conditions: conventional progesterone assay
row,Compound,cross-reaction with the antibody used in progesterone assays
1,C=CC[C@]1(O)CC[C@H]2[C@@H]3CCC4=CC(=O)CCC4=C3C=C[C@@]21C [altrenogest],does not cross-react

# Tested on: Anti-Progesterone (R4859) Antibody raised against 11α-hemisuccinate progesterone
# Conditions: tested by UC Davis Endocrinology Laboratory
row,Compound,% Cross Reaction
1,"CC(=O)[C@H]1CC[C@H]2[C@@H]3CC[C@H]4CC(=O)CC[C@]4(C)[C@H]3CC[C@]12C [5α-Pregnane-3,20-dione]",12.19%
2,CC(=O)[C@H]1CC[C@H]2[C@@H]3CCC4=CC(=O)CC[C@]4(C)[C@H]3[C@H](O)C[C@]12C [11α-OH-Progesterone],40.00%
3,CC(=O)[C@@]1(O)CC[C@H]2[C@@H]3CCC4=CC(=O)CC[C@]4(C)[C@H]3CC[C@@]21C [17α-OH-Progesterone],0.38%
4,C[C@H](O)[C@H]1CC[C@H]2[C@@H]3CCC4=CC(=O)CC[C@]4(C)[C@H]3CC[C@]12C [20α-OH-Progesterone],0.13%
5,C[C@@H](O)[C@H]1CC[C@H]2[C@@H]3CCC4=CC(=O)CC[C@]4(C)[C@H]3CC[C@]12C [20β-OH-Progesterone],0.13%
6,C[C@]12CCC(=O)C=C1CC[C@@H]1[C@@H]2[C@@H](O)C[C@@]2(C)[C@H]1CC[C@]2(O)C(=O)CO [Cortisol],<0.04%
7,C[C@]12CC[C@@H]3c4ccc(O)cc4CC[C@H]3[C@@H]1CC[C@@H]2O [Estradiol 17β],<0.01%
8,C[C@H](O)[C@H]1CC[C@H]2[C@@H]3CC[C@@H]4C[C@H](O)CC[C@]4(C)[C@H]3CC[C@]12C [Pregnanediol],<0.01%
9,CC(=O)[C@H]1CC[C@H]2[C@@H]3CC=C4C[C@@H](O)CC[C@]4(C)[C@H]3CC[C@]12C [Pregnenolone],0.12%
10,CC(=O)[C@H]1CC[C@H]2[C@@H]3CCC4=CC(=O)CC[C@]4(C)[C@H]3CC[C@]12C [Progesterone],100.00%
11,C[C@]12CC[C@H]3[C@@H](CCC4=CC(=O)CC[C@@]43C)[C@@H]1CC[C@@H]2O [Testosterone],<0.01%
